Measured values from patent publication US4988814A, “Tertiary alkyl functionalized piperazine derivatives” (American Home Products Corp., priority 1989, dated 1991).

Columns and labels:
[1] = target: T1, 5-HT1A serotonin receptor (Rattus norvegicus, UniProt P19327); test: 5-HT1A receptor binding, displacement of [^3 H] 8-OH DPAT (Hall et al.); conditions: for inhibition at 0.1 µM / inhibition at 1 µM: read-out: Affinity for 5HT1A Receptor % Inhibition; for IC50: read-out: Affinity for 5HT1A Receptor IC50
T1 construct: 44: 1685-1696, 1985; from tissue
T1 sequence (P19327 1-422): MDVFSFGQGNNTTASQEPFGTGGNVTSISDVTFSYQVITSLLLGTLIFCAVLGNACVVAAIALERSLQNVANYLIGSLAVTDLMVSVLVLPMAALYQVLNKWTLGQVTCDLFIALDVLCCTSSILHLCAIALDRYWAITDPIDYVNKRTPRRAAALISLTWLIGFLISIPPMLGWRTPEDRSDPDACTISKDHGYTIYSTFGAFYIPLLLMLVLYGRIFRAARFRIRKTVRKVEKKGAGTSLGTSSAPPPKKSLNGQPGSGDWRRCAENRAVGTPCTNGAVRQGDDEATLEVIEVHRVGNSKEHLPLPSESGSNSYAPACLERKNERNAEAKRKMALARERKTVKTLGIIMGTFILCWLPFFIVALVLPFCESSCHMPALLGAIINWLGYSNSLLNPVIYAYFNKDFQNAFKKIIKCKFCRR
Excerpt: 8-OH DPAT (dipropylaminotetralin) from the 5-HT1A serotonin receptor by the procedure of Hall et al., J. Neurochem.

D2 dopamine receptor = target: T2, D2 dopamine receptor (Rattus norvegicus, UniProt P61169); test: D2 dopamine receptor binding, limbic brain tissue incubated with ^3 H-spiroperiodol; conditions: for inhibition at 1 µM: read-out: Affinity for D2 Receptor % Inhibition
T2 construct: from tissue; host or cells: homogenized limbic brain tissue
T2 sequence (P61169 whole entry): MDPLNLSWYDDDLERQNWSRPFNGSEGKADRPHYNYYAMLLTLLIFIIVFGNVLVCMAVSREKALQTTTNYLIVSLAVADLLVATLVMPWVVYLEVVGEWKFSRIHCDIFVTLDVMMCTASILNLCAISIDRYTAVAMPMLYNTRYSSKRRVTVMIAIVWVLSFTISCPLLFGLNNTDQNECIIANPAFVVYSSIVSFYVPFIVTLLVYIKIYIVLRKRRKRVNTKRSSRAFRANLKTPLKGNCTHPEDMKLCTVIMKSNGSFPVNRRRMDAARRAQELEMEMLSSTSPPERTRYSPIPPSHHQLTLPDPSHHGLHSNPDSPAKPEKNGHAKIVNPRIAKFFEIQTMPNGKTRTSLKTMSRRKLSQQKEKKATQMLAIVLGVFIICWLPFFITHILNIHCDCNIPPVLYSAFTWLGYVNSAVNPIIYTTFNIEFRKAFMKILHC
Method: The D2 dopamine receptor binding study was in accordance with a modification of the procedure of Field et al., Brain Res., 136, pp. 578-584 (1977) and Yamamura et al., eds., Neurotransmitter Receptor Binding, Raven Press, N.Y. (1978), wherein homogenized limbic brain tissue is incubated with ^3 H-spiroperiodol and various concentrations of test compounds, filtered and washed and shaken with Hydrofluoro scintillation cocktail (National Diagnostics) and counted in a Packard 460CD scintillation counter.

5-HT1A receptor = conditions: prior art; cited from earlier work
D2 receptor = conditions: prior art; cited from earlier work

SMILES | inhibition at 0.1 µM [1] [%] | inhibition at 1 µM [1] [%] | further results
COc1ccccc1N1CCN(CCCCNC(=O)NC(C)(C)C)CC1 [Example 1, N-(1,1-Dimethylethyl)-N^1-[4-[4-(2-methoxyphenyl)-1-piperazinyl]butyl]urea] | 91 |  | 
COc1ccccc1N1CCN(CCCCNC(=O)C(C)(C)C)CC1 [Example 2, N-[4-[4-(2-Methoxyphenyl)-1-piperazinyl]butyl]-2,2-dimethylpropanamide] | 100 |  | 
COc1ccccc1N1CCN(CCOC(=O)C(C)(C)C)CC1 [Example 3, 2,2-Dimethylpropanoic acid 2-[4-(2-methoxyphenyl)-1-piperazinyl]ethyl ester] |  | 86 | inhibition at 1 µM (D2 dopamine receptor): 89%
COc1ccccc1N1CCN(CCCOC(=O)C(C)(C)C)CC1 [Example 4, 2,2-Dimethylpropanoic acid 3-[4-(2-methoxyphenyl)-1-piperazinyl]propyl ester] |  | 98 | inhibition at 1 µM (D2 dopamine receptor): 99%
CC(C)(C)C(=O)OCCCN1CCN(c2ccccc2Cl)CC1 [Example 5, 2,2-Dimethylpropanoic acid 3-[4-(2-chlorophenyl)-1-piperazinyl]propyl ester] |  | 98 | inhibition at 1 µM (D2 dopamine receptor): 58%
COc1ccccc1N1CCN(CC(C(=O)OC(C)(C)C)c2ccccc2)CC1 (centres unmarked) [Example 12, Tertiary-butyl 3-[1-[4-(2-methoxyphenyl)piperazinyl]]-2-phenylpropanoate] | 86 | 98 | IC50 [1]: 11.8 nM
COc1ccccc1N1CCN(CC(C(=O)NC(C)(C)C)c2ccccc2)CC1 (centres unmarked) [Example 13, N-Tertiary-butyl 3-[4-(2-methoxyphenyl)piperazinyl]-2-phenylpropanamide] |  |  | IC50 (D2 dopamine receptor; read-out: Affinity for D2 Receptor IC50): 1740 nM
COc1ccccc1N1CCN(CCNC(=O)C2(C)CCCCC2)CC1 [Example 15, N-[2-[4-(2-Methoxyphenyl)-1-piperazinyl)ethyl]-1-methylcyclohexanecarboxamide] | 98 |  | 
COc1ccccc1N1CCN(CCNC(=O)NC2(C)CCCCC2)CC1 [Example 18, N-[2-[4-(2-Methoxyphenyl)-1-piperazinyl]ethyl]-N'-(1-methylcyclohexyl)urea] | 85 |  | 
O=C1CC2(CCCC2)CC(=O)N1CCCCN1CCN(c2ncccn2)CC1 [buspirone, reference compound] |  |  | 5-HT1A receptor affinity/binding (in words) [1]: potent affinity; 5-HT1A receptor affinity/activity (in words) (5-HT1A receptor): selective activity
CCCCN1C(=O)C2C(=O)N(CCCCN3CCN(c4ccccc4OC)CC3)C(=O)C(C1=O)C2(C)C [umespirone] |  |  | D2 receptor affinity (in words) (D2 receptor): high affinity; 5-HT1A receptor affinity/activity (in words) (5-HT1A receptor): high affinity

Second part, led by results:

inhibition at 0.1 µM [1] [%] | inhibition at 1 µM [1] [%] | SMILES | further results
67 |  | CC1(C(=O)NCCN2CCN(c3ncccn3)CC2)CCCCC1 [Example 19, N-2-(4-(2-Pyrimidinyl)-1-piperazinyl)ethyl-1-methylcyclohexylcarboxamide] | 
100 |  | COc1ccccc1N1CCN(C[C@@H](C)NC(=O)C2(C)CCCCC2)CC1 [Example 20, (R)-N-[2-[4-(2-Methoxyphenyl)-1-piperazinyl]-1-methylethyl]-1-methylcyclohexane carboxamide] | 
27 | 78 | COc1ccccc1N1CCN(CC(OC(=O)C(C)(C)C)c2ccccc2)CC1 (centres unmarked) [Example 23, 2,2-Dimethylpropanoic acid 2-(4-(2-methoxyphenyl)-piperazin-1-yl)-1-phenylethyl ester] | IC50 [1]: 270 nM
73 | 97 | COc1ccccc1N1CCN(CC(OC(=O)NC(C)(C)C)c2ccccc2)CC1 (centres unmarked) [Example 24] | IC50 [1]: 20 nM
48 | 96 | COc1ccccc1N1CCN(CC(C(=O)NNC(C)(C)C)c2ccccc2)CC1 (centres unmarked) [Example 26, N-Tert-butyl-3-[1-[4-(2-methoxy)phenyl]piperazinyl]-2-phenyl-propionhydrazide] | IC50 [1]: 118 nM
